Laboratory results taken from PMC11900122, “Study of Intracellular Peptides of the Central Nervous System of Zebrafish (Danio rerio) in a Parkinson’s Disease Model” (International Journal of Molecular Sciences, 2025).

What follows are sequences tested on Zebrafish (Danio rerio) larvae (assay: Behavioral assay in 6-OHDA zebrafish larvae model). Conditions: larvae 4 dpf, 750 µM 6-OHDA 24 h, then peptide 50 µM for 24 h; filmed 5 min, ToxTrac; 12 embryos per group.
Type: in vivo
Protocol: Wild-type adult D. rerio (zebrafish) were obtained from a licensed commercial distributor. They were maintained on a 14 h light–10 h dark photoperiod in fresh filtered water at 28 °C and fed twice a day with dry food and once a day with Artemia sp. Reproduction was performed in individual fish tanks in a 1 male–1 female proportion, with pebbles and artificial plants. Eggs were collected, selected and maintained in an incubator at 28 °C until 4 days post fertilization (dpf). This study followed the guidelines of the National Council for Animal Experimentation Control (CONCEA) and was approved by the Ethics Commission for Animal Use (CEUA) at the Bioscience Institute of São Paulo State University (São Vicente, Brazil: Protocol Number 06/2023, approved on 22 June 2023).
Zebrafish (Danio rerio) larvae at 4 dpf were transferred to a 96-well plate, a single larva per well. Larvae were treated with 750 µM 6-OHDA in system water for 24 h in an incubator at 28 °C. Then, solution was changed to system water with each peptide in different concentrations—10 µM, 20 µM, 30 µM, 40 µM and 50 µM [47]—and larvae were incubated at 28 °C for another 24 h. Finally, each larva was filmed for 5 min, and videos were processed by an automated tracking system (ToxTrac Version 2.96). Analysis parameters were mean speed (mm/s) and total distance swum (mm) (Figure 8). Statistical analysis was performed using a one-way analysis of variance (ANOVA) test followed by Dunnett’s test for multiple comparisons. Data were statistically analyzed using GraphPad Prism Software (GraphPad Software Inc., San Diego, CA, USA).
Figure 8 Zebrafish larva model. Zebrafish larvae were immersed in 6-OHDA 750 µM for 24 h, then in each peptide at 10 µM, 20 µM, 30 µM, 40 µM or 50 µM for 24 h. Videos were recorded for 5 min and then analyzed by software (ToxTrac Version 2.96). Parameters were mean speed and distance traveled.
GVGFATRQV [p-FABP7] was tested, and the “Mean speed, compared to the control group” value was “statistically equal results to the control group” and the “Total distance swum, compared to the control group” value was “statistically equal results to the control group”. For “TIEQEKQAGSS [p-Tbeta4, […], derived from thymosin beta-4]”, the “Mean speed, compared to the control group” value was “statistically equal results to the control group” and the “Total distance swum, compared to the control group” value was “statistically equal results to the control group”. For “TLDLNEMDYIQRGGPE [p-MRPS36, peptide derived from mitochondrial ribosomal protein S36]”, the “Mean speed, compared to the control group” value was “statistically equal results to the control group” and the “Total distance swum, compared to the control group” value was “statistically equal results to the control group”.
